# Test results as given in patent US8674109B2, “Pesticidal compositions” (Dow AgroSciences, LLC., priority 2009, dated 2014).
# Columns and labels:
# Type in all cases: in vivo
# [1] = test system: beet armyworm (BAW; Spodoptera exigua: Lepidoptera); assay: Insecticidal test for beet armyworm, 128-well diet tray assay
# Description: Insecticidal Test for Beet Armyworm (Spodoptera exigua)
# (§1) Bioassays on beet armyworm (BAW; Spodoptera exigua: Lepidoptera) were conducted using a 128-well diet tray assay. Three to five second instar BAW larvae were placed in each well (3 mL) of the diet tray that had been previously filled with 1 mL of artificial diet to which 50 μg/cm^2 of the test compound (dissolved in 50 μL of 90:10 acetone-water mixture) had been applied (to each of eight wells) and then allowed to dry. Trays were covered with a clear self-adhesive cover, and held at 25° C., 14:10 light-dark for six days. Percent mortality was recorded for the larvae in each well; activity in the eight wells was then averaged.
# [2] = test system: corn earworm (CEW; Helicoverpa zea: Lepidoptera); assay: Insecticidal test for corn earworm, 128-well diet tray assay
# Description: Insecticidal Test for Corn Earworm (Helicoverpa zea)
# as §1, with “corn earworm (CEW; Helicoverpa zea:” for “beet armyworm (BAW; Spodoptera exigua:”, “CEW” for “BAW”
# [3] = test system: green peach aphid (Myzus persicae); assay: Insecticidal test for green peach aphid in foliar spray assay on cabbage seedlings
# Description: Insecticidal Test for Green Peach Aphid (Myzus persicae) in Foliar Spray Assay
# Cabbage seedlings grown in 3-inch pots, with 2-3 small (3-5 cm) true leaves, were used as test substrate. The seedlings were infested with 20-50 green peach aphids (wingless adult and nymph) one day prior to chemical application. Four pots with individual seedlings were used for each treatment. Compounds (2 mg) were dissolved in 2 mL of acetone/methanol (1:1) solvent, forming stock solutions of 1000 ppm. The stock solutions were diluted 5× with 0.025% Tween 20 in H2O to obtain the solution at 200 ppm. A hand-held Devilbiss sprayer was used for spraying a solution to both sides of cabbage leaves until runoff. Reference plants (solvent check) were sprayed with the diluent only. Treated plants were held in a holding room for three days at approximately 25° C. and 40% relative humidity (RH) prior to grading. Evaluation was conducted by counting the number of live aphids per plant under a microscope. Insecticidal activity was measured by using Abbott's correction formula are presented in Table 2: Corrected % Control=100*(X−Y)/X
# where • X=No. of live aphids on solvent check plants • Y=No. of live aphids on treated plants
structure (smiles),measurement,setting,value
"CC(C)(C)OC(=O)Nc1ccc(-c2ncn(-c3ccc(OC(F)(F)C(F)(F)F)cc3)n2)cc1 [Compound 1, {4-[1-(4-pentafluoroethyloxyphenyl)-1H-[1,2,4]triazol-3-yl]-phenyl}-carbamic acid tert-butyl ester]",% Mortality BAW 50 μg/cm^2,[1],A (50-100)
same,% Mortality CEW 50 μg/cm^2,[2],A (50-100)
same,% Mortality GPA 200 ppm,[3],B (Less than 80)
CO[C@@H]1O[C@@H](C)[C@H](OC)[C@@H](OC(=O)Nc2ccc(-c3ncn(-c4ccc(OC(F)(F)F)cc4)n3)cc2)[C@H]1OC [Compound 2],% Mortality BAW 50 μg/cm^2,[1],A (50-100)
same,% Mortality CEW 50 μg/cm^2,[2],B (Less than 50)
same,% Mortality GPA 200 ppm,[3],B (Less than 80)
"CCOc1cnc(C(C)(C)OC(=O)Nc2ccc(-c3ncn(-c4ccc(OC(F)(F)F)cc4)n3)cc2)nc1 [Compound 3, {4-[1-(4-trifluoromethoxyphenyl)-1H-[1,2,4]triazol-3-yl]-phenyl}-carbamic acid 1-(5-ethoxy-pyrimidin-2-yl)-1-methyl-ethyl ester]",% Mortality BAW 50 μg/cm^2,[1],A (50-100)
same,% Mortality CEW 50 μg/cm^2,[2],B (Less than 50)
same,% Mortality GPA 200 ppm,[3],B (Less than 80)
CC1(OC(=O)Nc2ccc(-c3ncn(-c4ccc(OC(F)(F)F)cc4)n3)cc2)CCCCC1 [Compound 4],% Mortality BAW 50 μg/cm^2,[1],B (Less than 50)
same,% Mortality CEW 50 μg/cm^2,[2],B (Less than 50)
same,% Mortality GPA 200 ppm,[3],B (Less than 80)
COCC(C)(C)OC(=O)Nc1ccc(-c2ncn(-c3ccc(OC(F)(F)F)cc3)n2)cc1 [Compound 5],% Mortality BAW 50 μg/cm^2,[1],A (50-100)
same,% Mortality CEW 50 μg/cm^2,[2],A (50-100)
same,% Mortality GPA 200 ppm,[3],B (Less than 80)
CCCC(C)(C)OC(=O)Nc1ccc(-c2ncn(-c3ccc(OC(F)(F)F)cc3)n2)cc1 [Compound 6],% Mortality BAW 50 μg/cm^2,[1],A (50-100)
same,% Mortality CEW 50 μg/cm^2,[2],B (Less than 50)
same,% Mortality GPA 200 ppm,[3],B (Less than 80)
CCOC(=O)c1csc(C(=O)C(C)(C)OC(=O)Nc2ccc(-c3ncn(-c4ccc(OC(F)(F)F)cc4)n3)cc2)n1 [Compound 7],% Mortality BAW 50 μg/cm^2,[1],B (Less than 50)
same,% Mortality CEW 50 μg/cm^2,[2],B (Less than 50)
same,% Mortality GPA 200 ppm,[3],B (Less than 80)
CC(C)(OC(=O)Nc1ccc(-c2ncn(-c3ccc(OC(F)(F)F)cc3)n2)cc1)C(F)(F)F [Compound 8],% Mortality BAW 50 μg/cm^2,[1],A (50-100)
same,% Mortality CEW 50 μg/cm^2,[2],A (50-100)
same,% Mortality GPA 200 ppm,[3],B (Less than 80)
"CCCCC(C)OC(=O)Nc1ccc(-c2ncn(-c3ccc(OC(F)(F)F)cc3)n2)cc1 (stereo not drawn) [Compound 9, {4-[1-(4-trifluoromethoxyphenyl)-1H-[1,2,4]triazol-3-yl]-phenyl}-carbamic acid 1-methyl-pentyl ester]",% Mortality BAW 50 μg/cm^2,[1],A (50-100)
same,% Mortality CEW 50 μg/cm^2,[2],A (50-100)
same,% Mortality GPA 200 ppm,[3],B (Less than 80)
CC(C)OC(=O)Nc1ccc(-c2ncn(-c3ccc(OC(F)(F)C(F)(F)F)cc3)n2)cc1 [Compound 10],% Mortality BAW 50 μg/cm^2,[1],A (50-100)
same,% Mortality CEW 50 μg/cm^2,[2],B (Less than 50)
same,% Mortality GPA 200 ppm,[3],B (Less than 80)
"CC(C)(Cc1ccccc1)OC(=O)Nc1ccc(-c2ncn(-c3ccc(OC(F)(F)F)cc3)n2)cc1 [Compound 11, {4-[1-(4-trifluoromethoxyphenyl)-1H-[1,2,4]triazol-3-yl]-phenyl}-carbamic acid 1,1-dimethyl-2-phenyl-ethyl ester]",% Mortality BAW 50 μg/cm^2,[1],A (50-100)
same,% Mortality CEW 50 μg/cm^2,[2],A (50-100)
same,% Mortality GPA 200 ppm,[3],B (Less than 80)
"C#CC(C)(C)OC(=O)Nc1ccc(-c2ncn(-c3ccc(OC(F)(F)F)cc3)n2)cc1 [Compound 12, {4-[1-(4-trifluoromethoxyphenyl)-1H-[1,2,4]triazol-3-yl]-phenyl}-carbamic acid 1,1-dimethyl-prop-2-ynyl ester]",% Mortality BAW 50 μg/cm^2,[1],A (50-100)
same,% Mortality CEW 50 μg/cm^2,[2],A (50-100)
same,% Mortality GPA 200 ppm,[3],B (Less than 80)
"C#CC(C)(C)OC(=O)Nc1ccc(-c2ncn(-c3ccc(C(F)(F)F)cc3)n2)cc1 [Compound 13, {4-[1-(4-trifluoromethylphenyl)-1H-[1,2,4]triazol-3-yl]-phenyl}-carbamic acid 1,1-dimethyl-prop-2-ynyl ester]",% Mortality BAW 50 μg/cm^2,[1],A (50-100)
same,% Mortality CEW 50 μg/cm^2,[2],A (50-100)
same,% Mortality GPA 200 ppm,[3],B (Less than 80)
"CC(C)(C#N)OC(=O)Nc1ccc(-c2ncn(-c3ccc(OC(F)(F)F)cc3)n2)cc1 [Compound 14, {4-[1-(4-trifluoromethoxyphenyl)-1H-[1,2,4]triazol-3-yl]-phenyl}-carbamic acid cyano-dimethyl-methyl ester]",% Mortality BAW 50 μg/cm^2,[1],B (Less than 50)
same,% Mortality CEW 50 μg/cm^2,[2],B (Less than 50)
"CC(OC(=O)Nc1ccc(-c2ncn(-c3ccc(OC(F)(F)F)cc3)n2)cc1)C1CC1 (stereo not drawn) [Compound 15, 4 {4-[1-(4-trifluoromethoxyphenyl)-1H-[1,2,4]triazol-3-yl]-phenyl}-carbamic acid 1-cyclopropyl-ethyl ester]",% Mortality BAW 50 μg/cm^2,[1],A (50-100)
same,% Mortality CEW 50 μg/cm^2,[2],A (50-100)
same,% Mortality GPA 200 ppm,[3],B (Less than 80)
CC(OC(=O)Nc1ccc(-c2ncn(-c3ccc(OC(F)(F)F)cc3)n2)cc1)C1CCCCC1 (stereo not drawn) [Compound 16],% Mortality BAW 50 μg/cm^2,[1],B (Less than 50)
same,% Mortality CEW 50 μg/cm^2,[2],B (Less than 50)
same,% Mortality GPA 200 ppm,[3],B (Less than 80)
CCOC(=O)CC(C)OC(=O)Nc1ccc(-c2ncn(-c3ccc(OC(F)(F)F)cc3)n2)cc1 (stereo not drawn) [Compound 17],% Mortality BAW 50 μg/cm^2,[1],B (Less than 50)
same,% Mortality CEW 50 μg/cm^2,[2],A (50-100)
same,% Mortality GPA 200 ppm,[3],B (Less than 80)
COCCOCC(C)(C)OC(=O)Nc1ccc(-c2ncn(-c3ccc(OC(F)(F)F)cc3)n2)cc1 [Compound 18],% Mortality BAW 50 μg/cm^2,[1],A (50-100)
same,% Mortality CEW 50 μg/cm^2,[2],A (50-100)
same,% Mortality GPA 200 ppm,[3],B (Less than 80)
C=CC(C)(C)OC(=O)Nc1ccc(-c2ncn(-c3ccc(OC(F)(F)F)cc3)n2)cc1 [Compound 19],% Mortality BAW 50 μg/cm^2,[1],A (50-100)
same,% Mortality CEW 50 μg/cm^2,[2],A (50-100)
same,% Mortality GPA 200 ppm,[3],B (Less than 80)
CCOC(=O)C(C)(C)OC(=O)Nc1ccc(-c2ncn(-c3ccc(OC(F)(F)F)cc3)n2)cc1 [Compound 20],% Mortality BAW 50 μg/cm^2,[1],A (50-100)
same,% Mortality CEW 50 μg/cm^2,[2],A (50-100)
same,% Mortality GPA 200 ppm,[3],B (Less than 80)
CC(C)(OC(=O)Nc1ccc(-c2ncn(-c3ccc(OC(F)(F)F)cc3)n2)cc1)c1ccccc1 [Compound 21],% Mortality BAW 50 μg/cm^2,[1],A (50-100)
same,% Mortality CEW 50 μg/cm^2,[2],A (50-100)
same,% Mortality GPA 200 ppm,[3],B (Less than 80)
COc1ccc(CC(C)OC(=O)Nc2ccc(-c3ncn(-c4ccc(OC(F)(F)F)cc4)n3)cc2)cc1 (stereo not drawn) [Compound 22],% Mortality BAW 50 μg/cm^2,[1],A (50-100)
same,% Mortality CEW 50 μg/cm^2,[2],A (50-100)
same,% Mortality GPA 200 ppm,[3],B (Less than 80)
"CCCCC(OC(=O)Nc1ccc(-c2ncn(-c3ccc(OC(F)(F)F)cc3)n2)cc1)C(=O)OCC (stereo not drawn) [Compound 26, 2-{4-[1-(4-trifluoromethoxyphenyl)-1H-[1,2,4]triazol-3-yl]-phenylcarbamoyloxy}-hexanoic acid ethyl ester]",% Mortality BAW 50 μg/cm^2,[1],A (50-100)
same,% Mortality CEW 50 μg/cm^2,[2],A (50-100)
C[C@H](OC(=O)Nc1ccc(-c2ncn(-c3ccc(OC(F)(F)F)cc3)n2)cc1)c1ccccc1 [Compound 60],% Mortality BAW 50 μg/cm^2,[1],A (50-100)
same,% Mortality CEW 50 μg/cm^2,[2],A (50-100)
C[C@@H](OC(=O)Nc1ccc(-c2ncn(-c3ccc(OC(F)(F)F)cc3)n2)cc1)c1ccccc1 [Compound 61],% Mortality BAW 50 μg/cm^2,[1],A (50-100)
same,% Mortality CEW 50 μg/cm^2,[2],A (50-100)
O=C(Nc1ccc(-c2ncn(-c3ccc(OC(F)(F)F)cc3)n2)cc1)Oc1cccc(C(F)(F)F)c1 [Compound 125],% Mortality GPA 200 ppm,[3],B (Less than 80)
O=C(Nc1ccc(-c2ncn(-c3ccc(OC(F)(F)F)cc3)n2)cc1)Oc1ccc(C(F)(F)F)cc1 [Compound 126],% Mortality GPA 200 ppm,[3],B (Less than 80)
O=C(Nc1ccc(-c2ncn(-c3ccc(OC(F)(F)F)cc3)n2)cc1)Oc1ccc(F)cc1 [Compound 127],% Mortality GPA 200 ppm,[3],B (Less than 80)
"CN(C(=O)OC(C)(C)C)c1ccc(-c2ncn(-c3ccc(OC(F)(F)F)cc3)n2)cc1 [Compound 131, tert-butyl methyl(4-(1-(4-(trifluoromethoxy)phenyl)-1H-1,2,4-triazol-3-yl)phenyl)carbamate]",% Mortality GPA 200 ppm,[3],B (Less than 80)
